Laboratory results from PubChem BioAssay AID190 (DTP/NCI, 2004).
Values joined by “and” are separate entries in the source; they are usually repeats but may differ in a detail not shown here. Identical values can stand only once. Inconclusive results and toxic doses are left out.

Test system: AKR/Lw mice, AKR lymphoma ip, median survival T/C
Assay: NCI In Vivo Anticancer Drug Screen. Data for tumor model Lymphoma AKR (Transplanted) (intraperitoneal) in AKR/Lw mice
Settings: endpoint: median survival time, higher = longer survival
Procedure: The antitumor activity of compounds was measured in mice bearing transplantable tumors. Survival or tumor size were measured and the results are expressed as the measurement made in the treated group (T) divided by the measurement made in the vehicle treated control group (C). The tumor model used in this assay is Lymphoma AKR (Transplanted) (intraperitoneal) in AKR/Lw mice

[1] = dose: 100.0 mg/kg/injection, schedule: Q01DX001 (ip), vehicle: saline
[2] = dose: 100.0 mg/kg/injection, schedule: Q04DX003 (ip), vehicle: other
[3] = dose: 200.0 mg/kg/injection, schedule: Q01DX001 (ip), vehicle: saline
[4] = dose: 400.0 mg/kg/injection, schedule: Q04DX003 (ip), vehicle: other
[5] = dose: 100.0 mg/kg/injection, schedule: Q01DX001 (ip), vehicle: Klucel (hydroxypropylcellulose) (HPC)
[6] = dose: 100.0 mg/kg/injection, schedule: Q04DX003 (ip), vehicle: Klucel (hydroxypropylcellulose) (HPC)
[7] = dose: 200.0 mg/kg/injection, schedule: Q01DX001 (ip), vehicle: Klucel (hydroxypropylcellulose) (HPC)
[8] = dose: 200.0 mg/kg/injection, schedule: Q04DX003 (ip), vehicle: Klucel (hydroxypropylcellulose) (HPC)
[9] = dose: 400.0 mg/kg/injection, schedule: Q01DX001 (ip), vehicle: Klucel (hydroxypropylcellulose) (HPC)

Q: Which results are given for `Nc1ncn(C2OC(CO)C(O)C2O)c(=O)n1` (configuration not stated)?
A: T/C (dose: 0.06 mg/kg/injection, schedule: Q04DX008 (ip), vehicle: saline): 116 % of control; T/C (dose: 0.12 mg/kg/injection, schedule: Q04DX004 (ip), vehicle: saline): 109 % of control; T/C (dose: 0.25 mg/kg/injection, schedule: Q04DX004 (ip), vehicle: saline): 118 % of control; T/C (dose: 0.38 mg/kg/injection, schedule: Q04DX003 (ip), vehicle: saline): 88 % of control; T/C (dose: 0.5 mg/kg/injection, schedule: Q04DX008 (ip), vehicle: saline): 180 % of control; T/C (dose: 0.75 mg/kg/injection, schedule: Q01DX009 (ip), vehicle: water): 240 % of control; T/C (dose: 1.0 mg/kg/injection, schedule: Q04DX004 (ip), vehicle: saline): 152 % of control; T/C (dose: 1.0 mg/kg/injection, schedule: Q04DX008 (ip), vehicle: saline): 155 % of control; T/C (dose: 1.5 mg/kg/injection, schedule: Q01DX009 (ip), vehicle: saline): 92 % of control; T/C (dose: 1.5 mg/kg/injection, schedule: Q01DX009 (ip), vehicle: water): 153 % of control; T/C (dose: 2.0 mg/kg/injection, schedule: Q04DX004 (ip), vehicle: saline): 185 % of control; T/C (dose: 2.0 mg/kg/injection, schedule: Q04DX008 (ip), vehicle: saline): 159 % of control; T/C (dose: 2.5 mg/kg/injection, schedule: Q01DX001 (ip), vehicle: saline): 95 % of control and 114 % of control; T/C (dose: 2.5 mg/kg/injection, schedule: Q04DX003 (ip), vehicle: saline): 122 % of control; T/C (dose: 3.0 mg/kg/injection, schedule: Q01DX009 (ip), vehicle: water): 265 % of control; T/C (dose: 3.0 mg/kg/injection, schedule: Q04DX004 (ip), vehicle: saline): 150 % of control and 252 % of control; T/C (dose: 3.0 mg/kg/injection, schedule: Q04DX008 (ip), vehicle: saline): 150 % of control; T/C (dose: 4.4 mg/kg/injection, schedule: Q04DX004 (ip), vehicle: saline): 163 % of control and 223 % of control; T/C (dose: 4.4 mg/kg/injection, schedule: Q04DX008 (ip), vehicle: saline): 166 % of control and 180 % of control; T/C (dose: 5.0 mg/kg/injection, schedule: Q04DX003 (ip), vehicle: saline): 124 % of control; T/C (dose: 6.0 mg/kg/injection, schedule: Q01DX001 (ip), vehicle: saline): 92 % of control and 121 % of control; T/C (dose: 6.0 mg/kg/injection, schedule: Q01DX009 (ip), vehicle: water): 96 % of control; T/C (dose: 6.25 mg/kg/injection, schedule: Q01DX001 (ip), vehicle: saline): 90 % of control; T/C (dose: 10.0 mg/kg/injection, schedule: Q04DX003 (ip), vehicle: saline): 124 % of control; T/C (dose: 10.0 mg/kg/injection, schedule: Q04DX004 (ip), vehicle: saline): 163 % of control; T/C (dose: 10.0 mg/kg/injection, schedule: Q04DX008 (ip), vehicle: saline): 152 % of control and 169 % of control; T/C (dose: 12.0 mg/kg/injection, schedule: Q01DX001 (ip), vehicle: saline with Tween-80): 162 % of control; T/C (dose: 12.0 mg/kg/injection, schedule: Q01DX001 (ip), vehicle: saline): 92 % of control and 121 % of control; T/C (dose: 12.0 mg/kg/injection, schedule: Q04DX003 (ip), vehicle: water): 166 % of control; T/C (dose: 12.5 mg/kg/injection, schedule: Q01DX001 (ip), vehicle: saline): 105 % of control and 112 % of control; T/C (dose: 24.0 mg/kg/injection, schedule: Q01DX001 (ip), vehicle: saline with Tween-80): 178 % of control; T/C (dose: 30.0 mg/kg/injection, schedule: Q01DX001 (ip), vehicle: saline): 164 % of control; T/C (dose: 40.0 mg/kg/injection, schedule: Q01DX001 (ip), vehicle: saline): 103 % of control; T/C (dose: 48.0 mg/kg/injection, schedule: Q01DX001 (ip), vehicle: saline with Tween-80): 206 % of control; T/C (dose: 80.0 mg/kg/injection, schedule: Q01DX001 (ip), vehicle: saline): 119 % of control; T/C (dose: 96.0 mg/kg/injection, schedule: Q01DX001 (ip), vehicle: saline with Tween-80): 375 % of control; T/C (dose: 15.0 micrograms/kg/injection, schedule: Q01DX009 (ip), vehicle: saline): 113 % of control; T/C (dose: 30.0 micrograms/kg/injection, schedule: Q01DX009 (ip), vehicle: saline): 165 % of control; T/C (dose: 60.0 micrograms/kg/injection, schedule: Q01DX009 (ip), vehicle: saline): 150 % of control

Q: Which T/C [1] does the source give for `Cc1cc(NS(=O)(=O)c2ccc(N)cc2)no1` here?
A: The T/C was 110 % of control.

Q: What about the T/C [2] of the same compound?
A: Its T/C is 95 % of control.

Q: And the T/C [3]?
A: The T/C was 103 % of control.

Q: And the T/C (dose: 200.0 mg/kg/injection, schedule: Q04DX003 (ip), vehicle: other)?
A: Its T/C is 95 % of control.

Q: And the T/C (dose: 400.0 mg/kg/injection, schedule: Q01DX001 (ip), vehicle: saline)?
A: Its T/C is 96 % of control.

Q: And the T/C [4]?
A: The T/C was 95 % of control.

Q: `Clc1ccc(/C(=[C](\[Hg]/[C](=C(\c2ccccc2)c2ccc(Cl)cc2)c2ccccc2)c2ccccc2)c2ccccc2)cc1` was tested. Which T/C [5] did it give?
A: The T/C was 97 % of control.

Q: What about the T/C [6] of the same compound?
A: The T/C was 100 % of control.

Q: And the T/C [7]?
A: The T/C was 107 % of control.

Q: What about the T/C [8] of the same compound?
A: The T/C was 88 % of control.

Q: What about the T/C [9] of the same compound?
A: The T/C was 97 % of control.

Q: What about the T/C (dose: 400.0 mg/kg/injection, schedule: Q04DX003 (ip), vehicle: Klucel (hydroxypropylcellulose) (HPC)) of the same compound?
A: The T/C was 100 % of control.

Q: For `Cc1ccc(S(=O)(=O)Nc2ccccc2-c2nc3c(Cl)ccc(Cl)c3c(=O)o2)cc1`, which T/C [5] is on record?
A: Its T/C is 96 % of control.

Q: And the T/C [6]?
A: Its T/C is 90 % of control.

Q: What about the T/C [7] of the same compound?
A: The T/C was 103 % of control.

Q: What about the T/C [8] of the same compound?
A: The T/C was 90 % of control.

Q: And the T/C [9]?
A: The T/C was 93 % of control.

Q: `Nc1nc(=S)c2ncn(C3CC(O)C(CO)O3)c2[nH]1` (configuration not stated) was tested. Which T/C (dose: 12.5 mg/kg/injection, schedule: Q01DX009 (ip), vehicle: saline) did it give?
A: Its T/C is 93 % of control.

Q: What about the T/C (dose: 25.0 mg/kg/injection, schedule: Q04DX003 (ip), vehicle: saline) of the same compound?
A: The T/C was 108 % of control.

Q: And the T/C (dose: 50.0 mg/kg/injection, schedule: Q04DX003 (ip), vehicle: saline)?
A: The T/C was 102 % of control and 119 % of control.

Q: What about the T/C [1] of the same compound?
A: Its T/C is 100 % of control.

Q: What about the T/C [2] of the same compound?
A: The T/C was 98 % of control and 123 % of control.

Q: And the T/C [3]?
A: Its T/C is 102 % of control.

Q: And the T/C (dose: 200.0 mg/kg/injection, schedule: Q01DX009 (ip), vehicle: saline)?
A: Its T/C is 86 % of control and 105 % of control and 116 % of control.

Q: And the T/C (dose: 200.0 mg/kg/injection, schedule: Q04DX003 (ip), vehicle: saline)?
A: The T/C was 108 % of control and 112 % of control and 116 % of control.

Q: What about the T/C (dose: 300.0 mg/kg/injection, schedule: Q04DX003 (ip), vehicle: saline) of the same compound?
A: The T/C was 119 % of control.

Q: What about the T/C (dose: 400.0 mg/kg/injection, schedule: Q01DX009 (ip), vehicle: saline) of the same compound?
A: The T/C was 103 % of control and 110 % of control.

Q: And the T/C [4]?
A: The T/C was 113 % of control.

Q: What about the T/C (dose: 400.0 mg/kg/injection, schedule: Q04DX003 (ip), vehicle: saline) of the same compound?
A: Its T/C is 116 % of control and 122 % of control.

Q: What about the T/C (dose: 500.0 mg/kg/injection, schedule: Q01DX001 (ip), vehicle: saline) of the same compound?
A: The T/C was 105 % of control and 107 % of control and 121 % of control.

Q: And the T/C (dose: 500.0 mg/kg/injection, schedule: Q04DX003 (ip), vehicle: saline)?
A: Its T/C is 103 % of control.

Q: And the T/C (dose: 600.0 mg/kg/injection, schedule: Q01DX001 (ip), vehicle: saline)?
A: The T/C was 102 % of control and 111 % of control and 119 % of control.

Q: What about the T/C (dose: 600.0 mg/kg/injection, schedule: Q04DX003 (ip), vehicle: saline) of the same compound?
A: The T/C was 93 % of control and 100 % of control.

Q: `Cc1cccc(C)c1NC(=S)N(C)C` was tested. Which T/C (dose: 2.5 mg/kg/injection, schedule: Q04DX003 (ip), vehicle: Klucel (hydroxypropylcellulose) (HPC)) did it give?
A: Its T/C is 91 % of control.

Q: And the T/C (dose: 5.0 mg/kg/injection, schedule: Q04DX003 (ip), vehicle: Klucel (hydroxypropylcellulose) (HPC))?
A: The T/C was 94 % of control.

Q: What about the T/C (dose: 10.0 mg/kg/injection, schedule: Q04DX003 (ip), vehicle: Klucel (hydroxypropylcellulose) (HPC)) of the same compound?
A: The T/C was 102 % of control.

Q: And the T/C [5]?
A: The T/C was 92 % of control.

Q: What about the T/C [9] of the same compound?
A: The T/C was 111 % of control.
